PMC6767236, “Selective Cannabinoid 2 Receptor Agonists as Potential Therapeutic Drugs for the Treatment of Endotoxin-Induced Uveitis” (Molecules, 2019)

System: neutrophils from CB2R-/- mice
Assay: Transwell neutrophil migration assay towards CXCL2, CB2R-/- neutrophils
Format: cell-based, mouse
Conditions: 10 nM CXCL2
Description: As described previously, mouse neutrophils were isolated from the bone marrow of mice. Mice were euthanized, femur and tibia were dissected and flushed with ice-cold 1× Hanks balanced salt solution (HBSS; supplemented with […], pH7.5, and 0.5 mM EDTA; Invitrogen) through a sterile filter (70 μm). The suspension was centrifuged at 300× g for 12 min at 4 °C. EasySep™ neutrophil enrichment kit ([…] Technologies Inc., Vancouver, BC, Canada) was used to isolate neutrophils according to the manufacturer’s instructions. The isolated neutrophils were then washed once and the pelleted cells were suspended in RPMI (Invitrogen) containing 1% heat-inactivated fetal bovine serum (FBS, Invitrogen) and used immediately for neutrophil migration experiments or processed for adoptive transfer. The murine neutrophil isolation protocol routinely yields cell suspensions that are >95% pure and viable, as determined by cresyl violet and trypan blue exclusion, respectively.
Neutrophil migration assays were performed using a Transwell migration assay. Isolated neutrophils (1 × 10^5 cells/100 μL) from WT or CB2R^-/- mice were incubated with vehicle (0.01% DMSO), or various concentrations of RO8671304 or RO6851228 at 37 °C, 5% CO2 for 30 min. […] The number of migrated neutrophils was then determined using ImageJ. […]

In the case of `CC(C)(C)c1nc(N2CC[C@H](O)C2)c2nnn(Cc3nnnn3C3CC3)c2n1` [RO6871304, (3S)-1-{5-tert-butyl-3-[(1-cyclopropyl-1H-tetrazol-5-yl)methyl]-3H-[1,2, 3]triazolo[4,5-d]pyrimidin-7-yl}pyrrolidin-3-ol], the “CXCL2-induced migration of CB2R-/- neutrophils” value was “did not inhibit migration”.
